Experimental data taken from patent publication US3989837A, “Pharmaceutical compositions” (Chinoin Gyogyszer-es Vegyeszeti Termekek Gyara RT, priority 1972, dated 1976).

Tested on: granuloma formation
Assay: Cotton pellet granuloma (Table 2)
Type: in vivo, rat
Details: male rats, 7 days
Method: The experiments were performed on male rats weighing 140-160 g. In ether anaesthesia a […]. cotton pellet was placed in each of two subcutaneous pockets in the dorsal region of the animal. The drug was administered orally during a period of 7 days. The controls received a drugfree suspension. The doses seen in the Table were administered in two portions, in the morning and in the afternoon, respectively. On the 8th day the animals were killed and the pellets were dissected. After removal of fat and extraneous tissue, the pellets were dried for 5 hours at 50° C and weighed. The weight of the cotton pellet before implantation was subtracted from the weight of the dried, dissected pellet and drug efficiency was calculated from the obtained difference. Significance was calculated with Student's t test and drug effect was expressed as per cent.

## COc1ccc2c(c1)c(CC(=O)OCC(Cl)(Cl)Cl)c(C)n2C(=O)c1ccc(Cl)cc1 [Example 5, 1-(p-chlorobenzoyl)-2-methyl-5-methoxy-indol-3-yl-acetic-acid trichloroethyl ester]
Oral 5.5 mg./kg.
  Inhibition of granuloma formation: 19.5%
  granuloma tissue, treated: 56.7±11.1
Oral 11 mg./kg.
  Inhibition of granuloma formation: 24.8%
  granuloma tissue, treated: 52.0±17.8
